These results are taken from patent US5952382A, “Adamantyl-substituted retinoids and pharmaceutical/cosmetic compositions comprised thereof” (Centre International De Recherches Dermatologiques Galderma, priority 1995, dated 1999).

The subject of test [1] is embryonic teratocarcinoma F9 cells. The test is described as follows: Test of differentiation of embryonic teratocarcinoma F9 cells, antagonism of an agonist retinoid (secretion of the activator of plasminogen, morphology). The test is classed as cell-based, mice. The following applies: inhibition by 50% of effect of agonist compound A (10 nM) on secretion of the activator of plasminogen, 3 days incubation, read-out: Antagonist against compound A (10 nM) Test of differentiation of F9 cells IC50.

The test system is the same in test [2]. The following applies: prior art; cited from earlier work.

Where two headings read alike, the source gives them in different places.

Turning to “4-[7-(1-adamantyl)-6-carbonylpentyloxy-2-naphthyl]benzoic acid [Example 20]”, the IC50 in test [1] stood at 100 nM.
Turning to `O=C(O)c1ccc(-c2ccc3cc(OCc4ccccc4)c(C45CC6CC(CC(C6)C4)C5)cc3c2)cc1O` [Example 1, 2-hydroxy-4-[7-(1-adamantyl)-6-benzyloxy-2-naphthyl]benzoic acid], the 50% inhibitory concentration (IC50) in test [1] (Mus musculus, F9, 72 h) is 5 nM.
Turning to `COCCOCOc1cc2ccc(-c3ccc(C(=O)O)cc3)cc2cc1C12CC3CC(CC(C3)C1)C2` [Example 3, 4-[7-(1-adamantyl)-6-methoxyethoxymethoxy-2-naphthyl]benzoic acid], the IC50 in test [1] (Mus musculus, F9, 72 h) is 2 nM.
The same measure, in the same setting: the figure for `O=C(O)c1ccc(-c2ccc3cc(OCc4ccccc4)c(C45CC6CC(CC(C6)C4)C5)cc3c2)cc1` [Example 5, 4-[7-(1-adamantyl)-6-benzyloxy-2-naphthyl]benzoic acid] is 180 nM; for `O=C(O)c1ccc(-c2ccc3cc(C(=O)OCc4ccccc4)c(C45CC6CC(CC(C6)C4)C5)cc3c2)cc1` [Example 6, 4-[7-(1-adamantyl)-6-benzyloxycarbonyl-2-naphthyl]benzoic acid] it is 500 nM.
As to `O=C(O)c1ccc(-c2ccc3cc(OCCCCCCCCO)c(C45CC6CC(CC(C6)C4)C5)cc3c2)cc1` [Example 14, 4-[7-(1-adamantyl)-6-hydroxyoctyloxy-2-naphthyl]benzoic acid], in test [1] (Mus musculus, F9, 72 h), the IC50 was 250 nM.
Same read-out and setting: for `COCCCCCCOc1cc2ccc(-c3ccc(C(=O)O)cc3)cc2cc1C12CC3CC(CC(C3)C1)C2` [Example 39, 4-[7-(1-adamantyl)-6-methoxyhexyloxy-2-naphthyl]benzoic acid] the value was 450 nM.
Turning to `CC1=C(/C=C/C(C)=C/C=C/C(C)=C/C(=O)O)C(C)(C)CCC1` [retinoic acid], the “induction of differentiation of embryonic teratocarcinoma cells (F9) in mice” value in test [2] is “capable of inducing differentiation”.
